Tested on: genomic DNA from the bone marrow of TG mouse
Test: Mutation analysis of mouse bone marrow genomic DNA by sequencing with information on complementary strands
Assay type: in vivo, mouse (C57BL/6JJmsSlc-Tg (gpt delta))
Settings: ENU 150 mg/kg/day intraperitoneally for 5 days, n=2
Experimental: Male TG mice which were 7 to 9 weeks old at initiation of administration were used. ENU (produced by Toronto Research Chemicals, Inc.) was dissolved in saline to a concentration of 15.0 mg/mL. By using a plastic syringe and a 25 G injection needle, […] was intraperitoneally administered to the mice once per day (ENU 150 mg/kg/day) for 5 days (ENU group). Saline was administered to a control group. Seven days after the final administration, the animals were each euthanized to resect the femur, and genomic DNA was extracted from the bone marrow by using a REcoverEase DNA Isolation Kit (produced by Agilent Technologies) in accordance with the recommended protocol. The double-stranded DNA concentration of the resulting DNA was measured by using a Qubit3.0 Fluorometer (produced by Thermo Fisher Scientific) with a Qubit™ dsDNA BR Assay Kit attached thereto. […]
Each of the libraries prepared in 3) was subjected to sequencing by using a HiSeq 2500 (produced by Illumina, Inc.), where the read length was set to 2*100 bp. […]
Edit of raw read sequences acquired through sequencing, extraction of information on complementary strands, and mutation analysis were performed by using the procedure of 5) in Example 2 in accordance with the analysis flow illustrated above in Schematic Diagrams 3 and 4. […]

For CCN(N=O)C(N)=O [ENU, ethylnitrosourea], the “Frequencies of A:T>T:A, A:T>G:C, and G:C>A:T versus control group” value was “significantly higher”.

— patent US20240254547A1, “HIGHLY ACCURATE […]” (KAO CORPORATION, priority 2018, published 2024)
